Measurements taken from patent US11730712B2, “Functionalized long-chain hydrocarbon mono- and di-carboxylic acids and derivatives thereof, and their use for the prevention or treatment of disease” (ESPERVITA THERAPEUTICS, INC., priority 2021, dated 2023).
“And” between values parts separate entries of the source, which are not always exact repeats. Equal entries are not always repeated.

Assays:
Assay type in all cases: biochemical
[1] = molecular target: T1, AURORA C (Homo sapiens, UniProt Q9UQB9); test: Kinase assay, wild type kinases; conditions: compound 10 μM, 10 μM ATP, duplicate (Data 1, Data 2), >100 activation, <100 inhibition; for remaining activity at 10 µM: read-out: % Enzyme Activity (relative to DMSO controls), AURORA C
T1 sequence (Q9UQB9 1-309): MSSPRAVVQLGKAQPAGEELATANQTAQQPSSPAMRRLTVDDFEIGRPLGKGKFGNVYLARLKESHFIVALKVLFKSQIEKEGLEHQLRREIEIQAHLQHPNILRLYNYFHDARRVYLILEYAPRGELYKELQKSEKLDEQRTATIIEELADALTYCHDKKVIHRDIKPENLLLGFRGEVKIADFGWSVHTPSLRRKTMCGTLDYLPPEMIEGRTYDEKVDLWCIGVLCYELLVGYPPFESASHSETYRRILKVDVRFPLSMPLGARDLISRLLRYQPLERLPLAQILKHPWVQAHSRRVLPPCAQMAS

[2] = molecular target: T2, BMX/ETK (Homo sapiens, UniProt P51813); test: Kinase assay, wild type kinases; conditions: compound 10 μM, 10 μM ATP, duplicate (Data 1, Data 2), >100 activation, <100 inhibition; for remaining activity at 10 µM: read-out: % Enzyme Activity (relative to DMSO controls), BMX/ETK
T2 sequence (P51813 1-675): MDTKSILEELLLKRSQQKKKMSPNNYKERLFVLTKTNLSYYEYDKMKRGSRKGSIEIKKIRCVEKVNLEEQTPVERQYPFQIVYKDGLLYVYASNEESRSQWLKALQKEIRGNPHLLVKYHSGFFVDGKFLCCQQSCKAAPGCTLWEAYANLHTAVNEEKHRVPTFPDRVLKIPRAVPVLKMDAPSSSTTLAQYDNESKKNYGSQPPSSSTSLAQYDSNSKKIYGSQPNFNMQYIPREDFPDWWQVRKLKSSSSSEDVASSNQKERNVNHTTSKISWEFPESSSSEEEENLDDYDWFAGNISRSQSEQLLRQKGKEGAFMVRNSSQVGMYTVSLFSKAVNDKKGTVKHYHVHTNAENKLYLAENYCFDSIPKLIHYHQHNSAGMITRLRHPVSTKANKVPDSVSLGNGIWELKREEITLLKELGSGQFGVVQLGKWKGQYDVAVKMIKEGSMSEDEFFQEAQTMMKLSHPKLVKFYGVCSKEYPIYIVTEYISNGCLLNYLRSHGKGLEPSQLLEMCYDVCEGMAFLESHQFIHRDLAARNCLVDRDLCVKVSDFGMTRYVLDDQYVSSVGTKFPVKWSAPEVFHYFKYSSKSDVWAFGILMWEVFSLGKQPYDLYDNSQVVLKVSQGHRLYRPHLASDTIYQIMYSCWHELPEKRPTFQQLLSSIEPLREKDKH

[3] = molecular target: GSK3b (Homo sapiens, UniProt P49841); test: Kinase assay, wild type kinases; conditions: compound 10 μM, 10 μM ATP, duplicate (Data 1, Data 2), >100 activation, <100 inhibition; for remaining activity at 10 µM: read-out: % Enzyme Activity (relative to DMSO controls), GSK3b
GSK3b, sequence (P49841 whole entry, species assumed): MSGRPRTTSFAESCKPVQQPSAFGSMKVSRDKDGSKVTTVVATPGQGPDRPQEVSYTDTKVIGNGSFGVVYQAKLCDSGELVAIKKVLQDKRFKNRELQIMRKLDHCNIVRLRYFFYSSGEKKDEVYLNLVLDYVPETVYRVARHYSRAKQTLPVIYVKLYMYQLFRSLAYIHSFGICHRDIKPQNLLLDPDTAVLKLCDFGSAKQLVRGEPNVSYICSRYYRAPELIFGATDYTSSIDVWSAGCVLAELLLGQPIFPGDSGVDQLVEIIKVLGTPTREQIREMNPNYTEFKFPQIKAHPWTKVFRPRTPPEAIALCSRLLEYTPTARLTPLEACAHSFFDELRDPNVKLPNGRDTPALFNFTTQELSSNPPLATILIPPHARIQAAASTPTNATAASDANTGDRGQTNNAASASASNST

[4] = molecular target: MELK (Homo sapiens, UniProt Q14680); test: Kinase assay, wild type kinases; conditions: compound 10 μM, 10 μM ATP, duplicate (Data 1, Data 2), >100 activation, <100 inhibition; for remaining activity at 10 µM: read-out: % Enzyme Activity (relative to DMSO controls), MELK
MELK, sequence (Q14680 whole entry, species assumed): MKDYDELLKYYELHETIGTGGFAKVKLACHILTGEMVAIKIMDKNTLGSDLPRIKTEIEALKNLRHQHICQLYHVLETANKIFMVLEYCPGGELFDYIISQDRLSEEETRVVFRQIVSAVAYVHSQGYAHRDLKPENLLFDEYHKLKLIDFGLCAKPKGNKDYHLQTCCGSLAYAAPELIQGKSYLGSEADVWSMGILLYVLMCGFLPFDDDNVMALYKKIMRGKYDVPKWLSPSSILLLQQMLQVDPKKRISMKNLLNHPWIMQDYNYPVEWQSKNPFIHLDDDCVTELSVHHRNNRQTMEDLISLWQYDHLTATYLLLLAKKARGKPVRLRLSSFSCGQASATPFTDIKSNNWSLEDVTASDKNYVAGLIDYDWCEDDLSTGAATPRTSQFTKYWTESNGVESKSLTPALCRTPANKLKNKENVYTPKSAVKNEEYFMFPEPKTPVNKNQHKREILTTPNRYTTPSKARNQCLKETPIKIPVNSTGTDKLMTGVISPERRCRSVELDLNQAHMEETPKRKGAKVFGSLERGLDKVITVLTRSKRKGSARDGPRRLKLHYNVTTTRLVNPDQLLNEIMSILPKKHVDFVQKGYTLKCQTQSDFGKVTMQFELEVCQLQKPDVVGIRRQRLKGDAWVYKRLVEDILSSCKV

[5] = molecular target: c-Kit (Homo sapiens, UniProt P10721); test: Kinase assay, wild type kinases; conditions: compound 10 μM, 10 μM ATP, duplicate (Data 1, Data 2), >100 activation, <100 inhibition; for remaining activity at 10 µM: read-out: % Enzyme Activity (relative to DMSO controls), c-Kit
c-Kit, sequence (P10721 26-976): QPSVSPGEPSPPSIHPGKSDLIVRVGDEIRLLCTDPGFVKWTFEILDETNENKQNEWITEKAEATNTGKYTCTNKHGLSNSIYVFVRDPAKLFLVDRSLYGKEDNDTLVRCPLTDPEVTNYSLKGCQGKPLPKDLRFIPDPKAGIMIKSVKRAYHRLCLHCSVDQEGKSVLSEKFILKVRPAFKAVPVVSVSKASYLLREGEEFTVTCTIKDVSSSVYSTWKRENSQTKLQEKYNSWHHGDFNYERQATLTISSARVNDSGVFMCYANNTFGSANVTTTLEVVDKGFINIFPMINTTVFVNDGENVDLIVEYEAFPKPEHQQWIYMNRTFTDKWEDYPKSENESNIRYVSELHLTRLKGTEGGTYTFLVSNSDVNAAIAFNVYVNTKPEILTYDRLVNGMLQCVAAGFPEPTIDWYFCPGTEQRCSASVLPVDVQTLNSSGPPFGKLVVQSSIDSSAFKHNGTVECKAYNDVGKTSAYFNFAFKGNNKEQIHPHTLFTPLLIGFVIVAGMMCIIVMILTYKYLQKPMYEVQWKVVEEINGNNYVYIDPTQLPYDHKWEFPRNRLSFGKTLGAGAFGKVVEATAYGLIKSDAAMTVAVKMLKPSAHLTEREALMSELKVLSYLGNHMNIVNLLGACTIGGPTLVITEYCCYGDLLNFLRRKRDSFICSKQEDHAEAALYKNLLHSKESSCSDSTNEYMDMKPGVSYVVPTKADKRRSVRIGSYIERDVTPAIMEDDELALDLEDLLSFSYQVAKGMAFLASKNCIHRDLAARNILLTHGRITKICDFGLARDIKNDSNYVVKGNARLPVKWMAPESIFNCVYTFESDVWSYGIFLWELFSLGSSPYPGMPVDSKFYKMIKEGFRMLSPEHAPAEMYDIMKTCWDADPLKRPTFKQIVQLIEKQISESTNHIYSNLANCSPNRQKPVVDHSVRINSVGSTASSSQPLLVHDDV

[6] = molecular target: Aurora B (Homo sapiens, UniProt Q96GD4); test: Kinase assay, wild type kinases; conditions: compound 10 μM, 10 μM ATP, duplicate (Data 1, Data 2), >100 activation, <100 inhibition; for remaining activity at 10 µM: read-out: % Enzyme Activity (relative to DMSO controls), Aurora B
Aurora B, sequence (Q96GD4 whole entry): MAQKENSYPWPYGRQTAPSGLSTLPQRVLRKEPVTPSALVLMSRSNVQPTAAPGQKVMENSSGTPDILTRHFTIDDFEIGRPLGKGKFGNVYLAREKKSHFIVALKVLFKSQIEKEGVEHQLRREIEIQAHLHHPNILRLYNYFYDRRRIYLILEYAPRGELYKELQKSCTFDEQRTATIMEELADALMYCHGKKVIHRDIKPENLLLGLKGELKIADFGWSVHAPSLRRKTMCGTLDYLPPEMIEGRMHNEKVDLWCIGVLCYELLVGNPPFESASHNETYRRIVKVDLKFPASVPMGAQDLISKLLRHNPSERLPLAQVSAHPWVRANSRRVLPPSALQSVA

[7] = molecular target: T3, Human ACC1 (Homo sapiens, UniProt Q13085); test: ACC1 enzymatic assay (ADP-Glo); conditions: recombinant human ACC1 5 nM, 10 μM ATP, 10 μM acetyl CoA; Run 1-3; read-out: Compound IC50 (M) ACC1
T3 construct: FLAG (C); His (C); purchased BPS Biosciences 50202; host or cells: Baculovirus infected Sf9 cells
Protocol: Human ACC1 (Cat#50202 Lot #120830) and ACC2 (Cat #50201 Lot #160217) were obtained from BPS Biosciences, San Diego, Calif. 92121. Human ACC1 had C-terminal flag and His-tags with a MW of 270 KDa after purification from Baculovirus infected Sf9 cell expression system and came as a solution in 50 mM Tris-HCl, pH 8.0, 500 mM NaCl, 10% glycerol, 1 mM DTT, 100 μg/ml FLAG peptide with 70% purity. The stock concentration was 0.25 mg/ml corresponding to 0.926 μM. Human ACC2 was also purified from Baculovirus infected Sf9 expression system. […] The stock concentration was 0.1 mg/ml corresponding to 0.36 μM. The assay buffer for measuring the activity of ACC contained: 30 mM HEPES (pH 7.4), 2 mM MgCl2, 0.01% Brij35, 2 mM DTT, 1% DMSO (solvent for compound). For ACC1 and ACC2 assays, the following concentrations of substrate and cofactors were used: 12 mM NaHCO3, 10 μM acetyl CoA, 10 μM ATP, and 2 mM K-citrate. The recombinant human enzyme was used at 5 nM for ACC1 and 1 nM for ACC2. In brief, enzyme alone in the above buffer without substrate was used for background. All test materials were dissolved in 100% DMSO using acoustic technology (Echo550). The prepared solution was preincubated for 15 min followed by the addition of 5 μL/well of ADP standard. ATP was then added to start the reaction. The assay contents were spun and briefly shaken followed by incubation at room temperature for 1 h. At the end of completion of assay, 5 μL of ADP-Glo was added to each well to stop the reaction. The contents were mixed, spun and incubated at room temperature for 40 min followed by the addition of 10 μL/well of ADP detection reagent. The contents were spun, mixed and covered with plastic to measure luminescence. […] The light generated, measured in a luminometer, correlates to the amount of ADP generated in the ACC assay, which is indicative of ACC activity.
The enzyme concentrations for ACC1 and ACC2 were 5 nM and 1 nM, respectively.
Data represent nM or μM ADP produced, % Activity (relative to no inhibitor controls), and curve fits were performed by GraphPad Prism software. The IC50 concentration-response curves were generated for both the ACC1 and ACC2 assays using recombinant human ACC.

SMILES	remaining activity at 10 µM [1] [%]	remaining activity at 10 µM [2] [%]	remaining activity at 10 µM [3] [%]	remaining activity at 10 µM [4] [%]	remaining activity at 10 µM [5] [%]	remaining activity at 10 µM [6] [%]	IC50 [7]	% Enzyme Activity (relative to DMSO controls), AURORA C [1]	% Enzyme Activity (relative to DMSO controls), BMX/ETK [2]	% Enzyme Activity (relative to DMSO controls), GSK3b [3]	% Enzyme Activity (relative to DMSO controls), MELK [4]	% Enzyme Activity (relative to DMSO controls), c-Kit [5]	% Enzyme Activity (relative to DMSO controls), Aurora B [6]
CC(C)(CCCCc1ccc(CCCCC(C)(C)C(=O)O)cc1)C(=O)O [Compound I-1, 6-[4-(5-carboxy-5-methylhexyl)-phenyl]-2,2-dimethylhexanoic acid]	101	55	83.2	110	85.5	69	–	–	–	–	–	–	–
CC(C)(CCCCc1cccc(CCCCC(C)(C)C(=O)O)c1)C(=O)O [Compound I-32, 6-[3-(5-carboxy-5-methylhexyl)-phenyl]-2,2-dimethylhexanoic acid]	104	53.7	78	114	73.6	71.4	0.000284 M and 0.000272 M and 0.00022 M	–	–	–	–	–	–
CC(C)(CCCCc1cccc(CCCCC(C)(C)C(=O)SCCNC(=O)CCNC(=O)[C@H](O)C(C)(C)COP(=O)(O)OP(=O)(O)OC[C@H]2O[C@@H](n3cnc4c(N)ncnc43)[C@H](O)[C@@H]2OP(=O)(O)O)c1)C(=O)O [Compound I-32-CoA, 6-[3-(5-Carboxy-5-methylhexyl)-phenyl]-2,2-dimethylhexanoic acid Coenzyme A Ester]	–	–	–	–	–	–	5.07e-06 M and 5e-06 M and 6.03e-06 M	48.46% and 46.83%	49.54% and 43.87%	23.69% and 22.51%	28.56% and 27.35%	49.53% and 49.21%	33.27% and 30.67%
CC(C)(CCCCc1ccc(CCCCC(C)(C)C(=O)SCCNC(=O)CCNC(=O)[C@H](O)C(C)(C)COP(=O)(O)OP(=O)(O)OC[C@H]2O[C@@H](n3cnc4c(N)ncnc43)[C@H](O)[C@@H]2OP(=O)(O)O)cc1)C(=O)O [Compound I-1-CoA, 6-[4-(5-carboxy-5-methylhexyl)-phenyl]-2,2-dimethylhexanoic acid Coenzyme A ester]	–	–	–	–	–	–	1.63e-05 M and 1.33e-05 M and 1.25e-05 M	78.81% and 72.15%	49.55% and 47.76%	63.29% and 62.44%	23.02% and 21.99%	73.56% and 73.24%	36.79% and 32.68%
